Data from publication PMC4648050, “Discovery of Inhibitors of Trypanosoma brucei by Phenotypic Screening of a Focused Protein Kinase Library” (Chemmedchem, 2015).

How the values were obtained:
Format in all cases: biochemical, human/mammalian
[1] = biological target: ERK2 (Homo sapiens, UniProt P28482); test: Kinase panel: ERK2; conditions: compound at 10 μM, read-out: % of activity respect of the control
Description: (§1) The DDU kinase-focused compound set contains lead-like scaffolds that are designed to target protein kinases; they have kinase hinge binding motifs. Four of the 1H-imidazopyrazinones were screened against a human/mammalian kinase panel at the University of Dundee (http://www.kinase-screen.mrc.ac.uk) at a concentration of 10 μM. At the time of testing the panel contained 79 mammalian kinases selected to provide a broad coverage of the mammalian kinome (∼500 kinases in the human genome).[3] None of the compounds were active against any of the kinases at 10 μM.

[2] = biological target: T1, IKK epsilon (14231) (Homo sapiens, UniProt Q14164); test: Kinase panel: IKK epsilon (14231); conditions: compound at 10 μM, read-out: % of activity respect of the control
T1 sequence (Q14164 1-716): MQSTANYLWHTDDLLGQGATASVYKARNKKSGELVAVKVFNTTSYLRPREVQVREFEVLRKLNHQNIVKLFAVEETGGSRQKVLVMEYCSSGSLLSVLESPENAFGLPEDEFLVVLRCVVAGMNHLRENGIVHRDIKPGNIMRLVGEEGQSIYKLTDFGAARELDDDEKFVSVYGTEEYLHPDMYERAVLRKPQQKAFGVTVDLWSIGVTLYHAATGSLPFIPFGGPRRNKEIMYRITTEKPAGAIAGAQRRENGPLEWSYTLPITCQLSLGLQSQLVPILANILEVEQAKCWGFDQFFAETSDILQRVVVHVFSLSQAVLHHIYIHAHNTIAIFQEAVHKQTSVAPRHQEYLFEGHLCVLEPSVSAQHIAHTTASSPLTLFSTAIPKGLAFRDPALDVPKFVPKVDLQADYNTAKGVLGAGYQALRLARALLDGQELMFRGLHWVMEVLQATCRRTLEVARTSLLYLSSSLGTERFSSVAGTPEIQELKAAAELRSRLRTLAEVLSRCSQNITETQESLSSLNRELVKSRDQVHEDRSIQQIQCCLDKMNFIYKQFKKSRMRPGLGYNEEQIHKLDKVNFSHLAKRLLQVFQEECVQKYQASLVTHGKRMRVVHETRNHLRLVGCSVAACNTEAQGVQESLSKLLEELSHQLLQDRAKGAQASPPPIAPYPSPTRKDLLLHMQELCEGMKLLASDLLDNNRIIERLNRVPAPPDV
Description: as §1

[3] = biological target: RSK1 (Homo sapiens, UniProt Q15418); test: Kinase panel: RSK1; conditions: compound at 10 μM, read-out: % of activity respect of the control
RSK1, sequence (Q15418 whole entry): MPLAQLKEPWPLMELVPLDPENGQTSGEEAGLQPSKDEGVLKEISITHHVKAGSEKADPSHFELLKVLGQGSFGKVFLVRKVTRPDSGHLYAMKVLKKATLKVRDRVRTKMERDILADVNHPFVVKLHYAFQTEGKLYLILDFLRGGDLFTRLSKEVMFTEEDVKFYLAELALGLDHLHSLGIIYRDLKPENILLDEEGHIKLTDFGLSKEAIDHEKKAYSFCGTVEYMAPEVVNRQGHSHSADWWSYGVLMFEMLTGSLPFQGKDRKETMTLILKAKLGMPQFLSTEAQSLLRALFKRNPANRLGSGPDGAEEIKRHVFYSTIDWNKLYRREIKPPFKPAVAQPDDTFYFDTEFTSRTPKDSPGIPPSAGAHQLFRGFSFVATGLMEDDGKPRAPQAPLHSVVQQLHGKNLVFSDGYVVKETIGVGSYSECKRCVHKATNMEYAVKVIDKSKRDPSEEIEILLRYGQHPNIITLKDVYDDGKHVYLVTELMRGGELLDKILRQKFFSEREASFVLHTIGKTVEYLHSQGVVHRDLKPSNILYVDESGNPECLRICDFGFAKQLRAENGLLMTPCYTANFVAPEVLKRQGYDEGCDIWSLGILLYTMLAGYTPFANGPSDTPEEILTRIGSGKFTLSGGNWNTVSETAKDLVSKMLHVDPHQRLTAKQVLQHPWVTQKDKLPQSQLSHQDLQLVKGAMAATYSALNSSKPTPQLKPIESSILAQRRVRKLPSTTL
Description: as §1

[4] = tested on: PHK; test: Kinase panel: PHK; conditions: compound at 10 μM
Description: as §1

[5] = biological target: T2, CHK1 (Homo sapiens, UniProt O14757); test: Kinase panel: CHK1; conditions: compound at 10 μM, read-out: % of activity respect of the control
T2 sequence (O14757 1-476): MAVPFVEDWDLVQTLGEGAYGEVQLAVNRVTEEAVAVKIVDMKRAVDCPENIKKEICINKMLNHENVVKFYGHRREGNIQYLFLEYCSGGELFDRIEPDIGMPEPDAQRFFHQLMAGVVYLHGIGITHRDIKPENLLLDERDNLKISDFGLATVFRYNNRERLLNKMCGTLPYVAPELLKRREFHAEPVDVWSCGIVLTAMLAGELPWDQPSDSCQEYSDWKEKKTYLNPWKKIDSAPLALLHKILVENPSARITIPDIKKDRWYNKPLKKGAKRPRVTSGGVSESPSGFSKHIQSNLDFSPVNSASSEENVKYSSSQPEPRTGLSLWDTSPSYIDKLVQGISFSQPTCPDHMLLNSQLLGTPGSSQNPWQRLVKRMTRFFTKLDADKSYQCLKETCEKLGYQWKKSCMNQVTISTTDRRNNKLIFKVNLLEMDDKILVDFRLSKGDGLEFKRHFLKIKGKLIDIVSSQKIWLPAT
Description: as §1

[6] = biological target: CHK2 (Homo sapiens, UniProt O96017); test: Kinase panel: CHK2; conditions: compound at 10 μM, read-out: % of activity respect of the control
CHK2, sequence (O96017 whole entry): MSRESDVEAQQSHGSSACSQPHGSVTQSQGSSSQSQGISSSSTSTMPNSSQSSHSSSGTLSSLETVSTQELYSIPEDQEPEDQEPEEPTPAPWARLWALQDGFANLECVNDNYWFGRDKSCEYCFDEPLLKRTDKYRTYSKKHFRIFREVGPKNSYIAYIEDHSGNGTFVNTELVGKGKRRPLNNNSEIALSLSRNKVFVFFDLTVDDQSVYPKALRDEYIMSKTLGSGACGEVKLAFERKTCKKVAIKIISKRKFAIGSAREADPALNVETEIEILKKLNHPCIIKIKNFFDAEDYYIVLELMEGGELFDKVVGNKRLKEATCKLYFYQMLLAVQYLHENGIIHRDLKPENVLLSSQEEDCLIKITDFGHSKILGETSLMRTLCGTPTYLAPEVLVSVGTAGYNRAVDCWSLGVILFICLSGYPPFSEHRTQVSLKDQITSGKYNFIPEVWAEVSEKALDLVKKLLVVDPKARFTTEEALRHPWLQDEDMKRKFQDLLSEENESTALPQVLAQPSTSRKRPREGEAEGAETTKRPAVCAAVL
Description: as §1

[7] = biological target: T3, IKKb (Homo sapiens, UniProt O14920); test: Kinase panel: IKKb; conditions: compound at 10 μM, read-out: % of activity respect of the control
T3 sequence (O14920 1-756): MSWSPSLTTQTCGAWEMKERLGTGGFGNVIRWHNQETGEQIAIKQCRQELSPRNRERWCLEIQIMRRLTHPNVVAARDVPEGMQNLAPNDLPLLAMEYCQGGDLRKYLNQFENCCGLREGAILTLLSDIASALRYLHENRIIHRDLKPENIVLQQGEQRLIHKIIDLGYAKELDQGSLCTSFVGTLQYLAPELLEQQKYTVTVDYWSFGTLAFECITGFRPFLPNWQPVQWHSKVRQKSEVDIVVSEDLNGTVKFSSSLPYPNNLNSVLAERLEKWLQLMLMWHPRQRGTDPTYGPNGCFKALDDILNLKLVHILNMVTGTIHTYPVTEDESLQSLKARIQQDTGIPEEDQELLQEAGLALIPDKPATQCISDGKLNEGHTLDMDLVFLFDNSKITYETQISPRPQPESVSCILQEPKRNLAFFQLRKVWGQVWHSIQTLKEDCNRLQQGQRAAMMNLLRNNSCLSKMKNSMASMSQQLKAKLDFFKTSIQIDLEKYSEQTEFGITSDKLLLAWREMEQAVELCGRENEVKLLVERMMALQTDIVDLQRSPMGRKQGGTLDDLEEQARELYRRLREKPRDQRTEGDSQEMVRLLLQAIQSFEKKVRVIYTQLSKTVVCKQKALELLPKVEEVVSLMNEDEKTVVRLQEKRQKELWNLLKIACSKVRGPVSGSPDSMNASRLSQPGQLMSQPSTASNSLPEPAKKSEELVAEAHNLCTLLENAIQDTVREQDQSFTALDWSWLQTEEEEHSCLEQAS
Description: as §1

[8] = biological target: T4, p38s MAPK (Homo sapiens, UniProt O15264); test: Kinase panel: p38s MAPK; conditions: compound at 10 μM, read-out: % of activity respect of the control
T4 sequence (O15264 1-365): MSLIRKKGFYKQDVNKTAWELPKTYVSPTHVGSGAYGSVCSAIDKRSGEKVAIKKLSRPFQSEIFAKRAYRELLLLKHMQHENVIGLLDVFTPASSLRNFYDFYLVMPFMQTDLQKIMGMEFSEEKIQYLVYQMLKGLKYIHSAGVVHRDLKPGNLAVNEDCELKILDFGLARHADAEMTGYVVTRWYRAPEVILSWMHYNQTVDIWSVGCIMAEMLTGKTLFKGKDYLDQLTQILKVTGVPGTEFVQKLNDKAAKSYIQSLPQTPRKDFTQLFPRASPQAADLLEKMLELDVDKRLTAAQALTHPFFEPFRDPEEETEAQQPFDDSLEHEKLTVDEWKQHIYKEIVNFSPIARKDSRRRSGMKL
Description: as §1

[9] = biological target: MSK1 (Homo sapiens, UniProt O75582); test: Kinase panel: MSK1; conditions: compound at 10 μM, read-out: % of activity respect of the control
MSK1, sequence (O75582 whole entry): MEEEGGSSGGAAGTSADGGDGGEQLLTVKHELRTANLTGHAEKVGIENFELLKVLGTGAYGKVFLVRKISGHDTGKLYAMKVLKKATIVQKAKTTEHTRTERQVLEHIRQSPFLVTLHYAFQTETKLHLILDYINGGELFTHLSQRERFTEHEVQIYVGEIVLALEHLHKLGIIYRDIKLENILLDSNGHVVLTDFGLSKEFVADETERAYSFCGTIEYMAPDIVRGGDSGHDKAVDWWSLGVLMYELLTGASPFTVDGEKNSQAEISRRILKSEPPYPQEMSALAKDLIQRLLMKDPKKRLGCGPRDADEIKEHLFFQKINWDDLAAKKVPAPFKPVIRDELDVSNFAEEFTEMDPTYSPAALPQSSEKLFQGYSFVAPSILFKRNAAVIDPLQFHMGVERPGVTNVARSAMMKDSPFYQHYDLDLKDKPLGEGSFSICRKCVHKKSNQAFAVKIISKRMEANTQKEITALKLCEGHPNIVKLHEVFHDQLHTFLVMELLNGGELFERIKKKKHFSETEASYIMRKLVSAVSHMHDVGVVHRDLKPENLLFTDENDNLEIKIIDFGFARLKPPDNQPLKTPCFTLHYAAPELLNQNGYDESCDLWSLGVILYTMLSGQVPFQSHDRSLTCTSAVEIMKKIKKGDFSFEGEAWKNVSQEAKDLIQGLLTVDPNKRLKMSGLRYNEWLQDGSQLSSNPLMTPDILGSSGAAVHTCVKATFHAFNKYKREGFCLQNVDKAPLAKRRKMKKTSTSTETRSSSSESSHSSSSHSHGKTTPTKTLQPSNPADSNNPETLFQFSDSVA
Description: as §1

[10] = biological target: CK1 (Homo sapiens, UniProt P48730); test: Kinase panel: CK1; conditions: compound at 10 μM, read-out: % of activity respect of the control
CK1, sequence (P48730 whole entry): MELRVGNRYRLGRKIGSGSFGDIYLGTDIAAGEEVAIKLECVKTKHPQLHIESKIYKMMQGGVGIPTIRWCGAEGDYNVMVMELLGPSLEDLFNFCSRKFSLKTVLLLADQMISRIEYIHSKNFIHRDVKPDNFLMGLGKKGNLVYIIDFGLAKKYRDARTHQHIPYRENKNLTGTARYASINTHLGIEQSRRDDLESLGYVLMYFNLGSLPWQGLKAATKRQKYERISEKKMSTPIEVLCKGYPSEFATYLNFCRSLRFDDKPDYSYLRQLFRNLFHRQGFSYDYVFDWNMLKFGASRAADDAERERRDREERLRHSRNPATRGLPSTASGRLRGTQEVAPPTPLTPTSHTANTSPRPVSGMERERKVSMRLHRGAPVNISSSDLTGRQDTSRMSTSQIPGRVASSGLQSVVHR
Description: as §1

ERK2, sequence (P28482 whole entry): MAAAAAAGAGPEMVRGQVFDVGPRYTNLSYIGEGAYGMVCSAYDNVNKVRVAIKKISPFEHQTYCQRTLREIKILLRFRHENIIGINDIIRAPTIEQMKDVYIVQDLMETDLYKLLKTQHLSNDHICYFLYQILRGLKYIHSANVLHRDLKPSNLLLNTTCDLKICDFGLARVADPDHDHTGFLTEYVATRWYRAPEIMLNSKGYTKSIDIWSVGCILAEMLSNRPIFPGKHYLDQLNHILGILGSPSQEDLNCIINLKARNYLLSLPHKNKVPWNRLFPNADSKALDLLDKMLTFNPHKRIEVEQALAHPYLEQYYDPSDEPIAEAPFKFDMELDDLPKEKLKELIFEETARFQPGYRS

Compound	remaining activity at 10 µM [1] [%]	remaining activity at 10 µM [2] [%]	remaining activity at 10 µM [3] [%]	% of activity respect of the control [4] [%]	remaining activity at 10 µM [5] [%]	remaining activity at 10 µM [6] [%]	remaining activity at 10 µM [7] [%]	remaining activity at 10 µM [8] [%]	remaining activity at 10 µM [9] [%]	remaining activity at 10 µM [10] [%]
C[C@H](c1ccccc1)n1c(=O)[nH]c2ncc(-c3ccccc3)nc21 [Compound 14, (R)-6-Phenyl-1-(1-phenylethyl)-1H-imidazo[4,5-b]pyrazin-2(3H)-one]	121	87	89	94	94	93	77	77	93	71
CC(c1ccccc1)n1c(=O)[nH]c2ncc(-c3ccc(F)cc3)nc21 (stereo not shown) [Compound 1]	65	124	96	103	100	97	103	108	89	75
O=c1[nH]c2ncc(-c3ccc(F)cc3)nc2n1CC1CC1 [Compound 10]	84	103	85	97	90	97	105	91	89	75
O=c1[nH]c2ncc(-c3ccc(F)cc3)nc2n1C1CCCCC1 [Compound 12, 1-Cyclohexyl-6-(4-fluorophenyl)-1H-imidazo[4,5-b]pyrazin-2(3H)-one]	41	98	89	110	96	96	94	76	97	98
